Values quoted from earlier work, collected in US12295958B2, “Ready-to-use injectable formulations” (Zoetis Services LLC, priority 2019, dated 2025).
Structures can show the parent of a compound that is named as a salt. Where two headings read alike, the source gives them in different places.

Assays:
Pasteurella multocide = conditions: cats, single injection, Pasteurella multocide infections
S. intermedius = conditions: dogs, single injection, S. intermedius infections
S. canis = conditions: dogs, single injection, S. canis infections
[1] = clinical studies

| caking after transport (0.15% Tween and ethyl oleate, glass bottles, transported by road (about 2 hours) and air (about 1 hour)) | caking (PVP K30 in addition with 0.5% Tween 80) | caking (addition of 0.5% Tween) | caking (addition of 0.5% polyethylene glycol-12-oleate) | resuspendability (ethyl oleate, 0.15% Tween 80 as flocculating agent) | dispersability of sediment (increasing concentrations of phospholipids (Lipoid S100), suspensions containing PEG-12-oleate) | caking on vibration (long chain fatty acid mixture with addition of phospholipid) | redispersion after vibration (suspension in mixture of long chain saturated and unsaturated fatty acids) | redispersion after vibration (suspensions in Miglyol 840 and Miglyol 812) | Compound | time therapeutic dose concentrations are provided (Pasteurella multocide) | time therapeutic drug concentrations are maintained (S. intermedius) | time therapeutic drug concentrations are maintained (S. canis) | clinical equivalence of a single injection [1] | resuspendability (ethyl oleate suspension without Tween 80) |
| --- | --- | --- | --- | --- | --- | --- | --- | --- | --- | --- | --- | --- | --- | --- |
|  |  |  |  |  |  |  |  |  | CO/N=C(\C(=O)N[C@@H]1C(=O)N2C(C(=O)O)=C([C@@H]3CCCO3)CS[C@H]12)c1csc(N)n1 [Convenia, (6R,7R)-7-[[(2Z)-(2-amino-4-thiazolyl)(methoxyimino)acetyl]amino]-8-oxo-3-[(2S)-tetrahydro-2-furanyl]-5-thia-1-azabicyclo[4.2.0]oct-2-ene-2-carboxylic acid, monosodium salt] | approximately 7 days | approximately 7 days | about 14 days | clinically equivalent to a 14-day oral antibiotic regimen |  |
| “rock solid” cake | did not solve the caking problem | hard cake | prevented caking | good resuspendability | less dispersable sediments | caking on vibration | dispersed readily | difficult to redisperse after vibration | CCN(CC)CCOC(=O)[C@@H]1N2C(=O)[C@@H](NC(=O)Cc3ccccc3)[C@H]2SC1(C)C [penethamate] |  |  |  |  | required vigorous shaking and vortexing to disperse the cake |
